The results in this text go back to patent US8343983B2, “Substituted pyrazolo-pyrimidine compounds” (ArQule, Inc., priority 2009, dated 2013).

For this assay, the system named is cancer cells. Kind of assay: MTS assay: inhibition of cell growth (formazan absorbance at 492 nm after 72 hours with test compound). The format is cell-based. To be noted: inhibition class. In short, it runs like this:
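DMEM with 1% FBS; cells seeded at 3000/well and grown 18 h at 37 °C, then exposed to compound for 72 h and to MTS/PMS for 4 h. IC50 is the concentration giving a 50% absorbance drop; grades are % inhibition bands.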
A general note: Tetrazolium assays rely on reduction of a dye to a coloured formazan, in cell work by metabolically active cells.

[1] abbreviates: Homo sapiens, DLD-1 cells, read-out: DLD-1, MTS 72 hours at 10 uM.
Setting [2] is: Homo sapiens, KATO III cells, read-out: KATO III, MTS 72 hours at 10 uM.
Where [3] appears, read: Homo sapiens, MDA-MB-231 cells, read-out: MDA-MB-231, MTS 72 hours at 10 uM.
The mark [4] stands for this setting: Homo sapiens, NCI-H1299 cells, read-out: NCI-H1299, MTS 72 hours at 10 uM.
[5] abbreviates: Homo sapiens, PC-3 cells, read-out: PC-3, MTS 72 hours at 10 uM.
The mark [6] stands for this setting: PACA-2 cells, read-out: PACA-2, MTS 72 hours at 10 uM.

Read-outs that look alike come from different tables or passages of the source. Some results are limits rather than exact numbers.

Take `O=C(NCCc1ccccc1)C1CN(Cc2ccccc2)c2nc(NCc3ccccc3)nc3[nH]nc1c23` (stereo not drawn) [Compound 235, 6-benzyl-4-(benzylamino)-N-(2-phenylethyl)-2,6,7,8-tetrahydro-1,2,3,5,6-pentaazaacenaphthylene-8-carboxamide]: the inhibition at 10 µM by setting is: under setting [1], above 79%; under setting [2], above 79%; under setting [3], above 79%; under setting [4], above 79%; under setting [5], above 79%; under setting [6], above 79%.

As to `c1ccc(CN2CCc3n[nH]c4nc(NCC5COc6ccccc6O5)nc2c34)cc1` (stereo not drawn) [Compound 59, 6-benzyl-N-(2,3-dihydro-1,4-benzodioxin-2-ylmethyl)-2,6,7,8-tetrahydro-1,2,3,5,6-pentaazaacenaphthylen-4-amine], the inhibition at 10 µM under setting [1] was below 50%; the inhibition at 10 µM under setting [2] was below 50%; the inhibition at 10 µM under setting [3] was below 50%; the inhibition at 10 µM under setting [4] is below 50%; the inhibition at 10 µM under setting [5] is below 50%; the inhibition at 10 µM under setting [6] is below 50%.

Consider `c1ccc(CN2CCc3n[nH]c4nc(NCCCN5CCOCC5)nc2c34)cc1` [Compound 25, 6-benzyl-N-(3-morpholin-4-ylpropyl)-2,6,7,8-tetrahydro-1,2,3,5,6-pentaazaacenaphthylen-4-amine], for which the inhibition at 10 µM under setting [1] was below 50%; the inhibition at 10 µM under setting [2] is below 50%; the inhibition at 10 µM under setting [3] is below 50%; the inhibition at 10 µM under setting [4] is below 50%; the inhibition at 10 µM under setting [5] is below 50%; the inhibition at 10 µM under setting [6] is below 50%.

As to `c1ccc(CN2CCc3n[nH]c4nc(NC5CCC5)nc2c34)cc1` [Compound 49, 6-benzyl-N-cyclobutyl-2,6,7,8-tetrahydro-1,2,3,5,6-pentaazaacenaphthylen-4-amine], the inhibition at 10 µM reads like this: under setting [1], below 50%; under setting [2], below 50%; under setting [3], 50 to 79%; under setting [4], below 50%; under setting [5], below 50%; under setting [6], below 50%.

Turning to `c1ccc(CNc2nc3c4c(n[nH]c4n2)CCN3Cc2ccccc2)cc1` [Compound 37, N,6-dibenzyl-2,6,7,8-tetrahydro-1,2,3,5,6-pentaazaacenaphthylen-4-amine], the inhibition at 10 µM under setting [1] is below 50%; the inhibition at 10 µM under setting [2] is below 50%; the inhibition at 10 µM under setting [3] is below 50%; the inhibition at 10 µM under setting [4] was below 50%; the inhibition at 10 µM under setting [5] was below 50%; the inhibition at 10 µM under setting [6] is below 50%.

Consider `COc1ccc(CCN(C)c2nc3c4c(n[nH]c4n2)CCN3Cc2ccccc2)cc1OC` [Compound 14, 6-benzyl-N-[2-(3,4-dimethoxyphenyl)ethyl]-N-methyl-2,6,7,8-tetrahydro-1,2,3,5,6-pentaazaacenaphthylen-4-amine], for which the inhibition at 10 µM is below 50% under setting [1]; below 50% under setting [2]; below 50% under setting [3]; below 50% under setting [4]; below 50% under setting [5]; below 50% under setting [6].

For the molecule `c1ccc(CN2CCc3n[nH]c4nc(NCCc5ccc(-c6ccccc6)cc5)nc2c34)cc1` [Compound 66, 6-benzyl-N-(2-biphenyl-4-ylethyl)-2,6,7,8-tetrahydro-1,2,3,5,6-pentaazaacenaphthylen-4-amine], the inhibition at 10 µM was 50 to 79% under setting [1]; below 50% under setting [2]; below 50% under setting [3]; below 50% under setting [4]; below 50% under setting [5]; 50 to 79% under setting [6].

On to `COc1ccc(CN2CCCc3n[nH]c4nc(N5CCCC5)nc2c34)cc1` [Compound 244, 6-(4-methoxybenzyl)-4-pyrrolidin-1-yl-6,7,8,9-tetrahydro-2H-1,2,3,5,6-pentaazabenzo[cd]azulene], for which the inhibition at 10 µM under setting [1] was below 50%; the inhibition at 10 µM under setting [2] was below 50%; the inhibition at 10 µM under setting [3] is below 50%; the inhibition at 10 µM under setting [4] was below 50%; the inhibition at 10 µM under setting [5] was below 50%; the inhibition at 10 µM under setting [6] was below 50%.

Consider `CN1CCC(Nc2nc3c4c(n[nH]c4n2)CCN3)CC1` [Compound 126, N-(1-methylpiperidin-4-yl)-2,6,7,8-tetrahydro-1,2,3,5,6-pentaazaacenaphthylen-4-amine], for which the inhibition at 10 µM is below 50% under setting [1]; below 50% under setting [2]; below 50% under setting [3]; below 50% under setting [4]; below 50% under setting [5]; below 50% under setting [6].

On to `COc1ccc(CN2CCCc3n[nH]c4nc(NCCc5ccc(F)cc5)nc2c34)cc1` [Compound 248, N-[2-(4-fluorophenyl)ethyl]-6-(4-methoxybenzyl)-6,7,8,9-tetrahydro-2H-1,2,3,5,6-pentaazabenzo[cd]azulen-4-amine], for which the inhibition at 10 µM was above 79% under setting [1]; above 79% under setting [2]; above 79% under setting [3]; above 79% under setting [4]; above 79% under setting [5]; above 79% under setting [6].

`COc1ccc(CN2CCCc3n[nH]c4nc(NC5CCN(C)CC5)nc2c34)cc1` [Compound 246, 6-(4-methoxybenzyl)-N-(1-methylpiperidin-4-yl)-6,7,8,9-tetrahydro-2H-1,2,3,5,6-pentaazabenzo[cd]azulen-4-amine]: the inhibition at 10 µM under setting [1] is below 50%; the inhibition at 10 µM under setting [2] was below 50%; the inhibition at 10 µM under setting [3] was below 50%; the inhibition at 10 µM under setting [4] is below 50%; the inhibition at 10 µM under setting [5] is below 50%; the inhibition at 10 µM under setting [6] was below 50%.

As for `O=C(NCc1ccccc1)C1CN(Cc2ccccc2)c2nc(NCc3ccc(Oc4ccccc4)cc3)nc3[nH]nc1c23` (stereo not drawn) [Compound 230, N,6-dibenzyl-4-[(4-phenoxybenzyl)amino]-2,6,7,8-tetrahydro-1,2,3,5,6-pentaazaacenaphthylene-8-carboxamide], the inhibition at 10 µM is above 79% under setting [1]; 50 to 79% under setting [2]; below 50% under setting [3]; 50 to 79% under setting [4]; 50 to 79% under setting [5]; below 50% under setting [6].

For `COc1ccc(CN2CCCc3n[nH]c4nc(N5CCCCC5)nc2c34)cc1` [Compound 245, 6-(4-methoxybenzyl)-4-piperidin-1-yl-6,7,8,9-tetrahydro-2H-1,2,3,5,6-pentaazabenzo[cd]azulene], the inhibition at 10 µM under setting [1] was below 50%; the inhibition at 10 µM under setting [2] is below 50%; the inhibition at 10 µM under setting [3] is below 50%; the inhibition at 10 µM under setting [4] is below 50%; the inhibition at 10 µM under setting [5] was below 50%; the inhibition at 10 µM under setting [6] was below 50%.

Take `COc1ccc(CN2CCCc3n[nH]c4nc(NCCN5CCOCC5)nc2c34)cc1` [Compound 249, 6-(4-methoxybenzyl)-N-(2-morpholin-4-ylethyl)-6,7,8,9-tetrahydro-2H-1,2,3,5,6-pentaazabenzo[cd]azulen-4-amine]: the inhibition at 10 µM is below 50% under setting [1]; below 50% under setting [2]; below 50% under setting [3]; below 50% under setting [4]; below 50% under setting [5]; below 50% under setting [6].

For the molecule `CN(Cc1cccc2ccccc12)c1nc2c3c(n[nH]c3n1)CCN2Cc1ccccc1` [Compound 6, 6-benzyl-N-methyl-N-(1-naphthylmethyl)-2,6,7,8-tetrahydro-1,2,3,5,6-pentaazaacenaphthylen-4-amine], the inhibition at 10 µM under setting [1] is below 50%; the inhibition at 10 µM under setting [2] is below 50%; the inhibition at 10 µM under setting [3] was below 50%; the inhibition at 10 µM under setting [4] was below 50%; the inhibition at 10 µM under setting [5] is below 50%; the inhibition at 10 µM under setting [6] was below 50%.

In the case of `c1ccc(CN2CCc3n[nH]c4nc(NCc5cccc(-c6ccccc6)c5)nc2c34)cc1` [Compound 71, 6-benzyl-N-(biphenyl-3-ylmethyl)-2,6,7,8-tetrahydro-1,2,3,5,6-pentaazaacenaphthylen-4-amine], the inhibition at 10 µM runs as follows: under setting [1], 50 to 79%; under setting [2], 50 to 79%; under setting [3], 50 to 79%; under setting [4], 50 to 79%; under setting [5], below 50%; under setting [6], 50 to 79%.

For the molecule `CN1CCC(Nc2nc3c4c(n[nH]c4n2)CCN3c2ccccc2)CC1` [Compound 219, N-(1-methylpiperidin-4-yl)-6-phenyl-2,6,7,8-tetrahydro-1,2,3,5,6-pentaazaacenaphthylen-4-amine], the inhibition at 10 µM under setting [1] was above 79%; the inhibition at 10 µM under setting [2] is above 79%; the inhibition at 10 µM under setting [3] is above 79%; the inhibition at 10 µM under setting [4] is 50 to 79%; the inhibition at 10 µM under setting [5] was above 79%; the inhibition at 10 µM under setting [6] is above 79%.

On to `c1ccc(N2CCc3n[nH]c4nc(N5CCN(c6ccncc6)CC5)nc2c34)cc1` [Compound 210, 6-phenyl-4-(4-pyridin-4-ylpiperazin-1-yl)-2,6,7,8-tetrahydro-1,2,3,5,6-pentaazaacenaphthylene], for which the inhibition at 10 µM runs as follows: under setting [1], above 79%; under setting [2], above 79%; under setting [3], above 79%; under setting [4], above 79%; under setting [5], above 79%; under setting [6], above 79%.
